Laboratory results reported in publication PMC11855478, “Bicyclic N,S-Acetals Containing Fused Cysteine-Amide System as New Heterocyclic Class Targeting Human Farnesyltransferase (FTase-h)” (International Journal of Molecular Sciences, 2025).

Columns and labels:
Type in all cases: cell-based, human
[1] = system: SK-MEL-5 (Melanoma); assay: NCI one dose, SK-MEL-5; settings: SK-MEL-5, 1.00E-5 Molar one dose
Summary of the method: (§1)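 Cells of the National Cancer Institute 60-line human cancer screen are treated with test compound for 48 h, then growth is quantified by SRB assay.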

[2] = system: CCRF-CEM (Leukemia); assay: NCI one dose, CCRF-CEM; settings: 1.00E-5 Molar one dose
Summary of the method: as §1

[3] = system: NCI-H522 non-small cell lung cancer cells; assay: NCI cell proliferation, NCI-H522; settings: for inhibition at 10 µM: Homo sapiens, NCI-H522, read-out: % Cancer cell growth Inhibition (NCI-H522); for Growth Percent: NCI-H522, 1.00E-5 Molar one dose
Summary of the method: (§2)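 Read-out: SRB staining. Exposure: 48 h. Cells: NCI panel of 60 human cancer lines.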

[4] = system: LOX IMVI (Melanoma); assay: NCI one dose, LOX IMVI; settings: 1.00E-5 Molar one dose
Summary of the method: as §1

[5] = system: OVCAR-3 (Ovarian Cancer); assay: NCI one dose, OVCAR-3; settings: OVCAR-3, 1.00E-5 Molar one dose
Summary of the method: as §1

[6] = system: HS 578T (Breast Cancer); assay: NCI one dose, HS 578T; settings: 1.00E-5 Molar one dose
Summary of the method: as §1

[7] = system: K-562 leukaemia cells; assay: NCI one dose, K-562; settings: K-562, 1.00E-5 Molar one dose
Summary of the method: as §1

[8] = system: KM12 (Colon Cancer); assay: NCI one dose, KM12; settings: KM12, 1.00E-5 Molar one dose
Summary of the method: as §1

[9] = system: TK-10 (Renal Cancer); assay: NCI one dose, TK-10; settings: TK-10, 1.00E-5 Molar one dose
Summary of the method: as §1

[10] = system: CAKI-1 (Renal Cancer); assay: NCI one dose, CAKI-1; settings: CAKI-1, 1.00E-5 Molar one dose
Summary of the method: as §1

[11] = system: UO-31 renal cancer cells; assay: NCI one dose, UO-31; settings: UO-31, 1.00E-5 Molar one dose
Summary of the method: as §1

[12] = system: SW-620 (Colon Cancer); assay: NCI one dose, SW-620; settings: SW-620, 1.00E-5 Molar one dose
Summary of the method: as §1

[13] = system: UACC-62 (Melanoma); assay: NCI one dose, UACC-62; settings: UACC-62, 1.00E-5 Molar one dose
Summary of the method: as §1

[14] = system: COLO 205 (Colon Cancer); assay: NCI one dose, COLO 205; settings: COLO 205, 1.00E-5 Molar one dose
Summary of the method: as §1

[15] = system: OVCAR-8 (Ovarian Cancer); assay: NCI one dose, OVCAR-8; settings: OVCAR-8, 1.00E-5 Molar one dose
Summary of the method: as §2

[16] = system: SK-OV-3 (Ovarian Cancer); assay: NCI one dose, SK-OV-3; settings: SK-OV-3, 1.00E-5 Molar one dose
Summary of the method: as §1

[17] = system: SR (Leukemia); assay: NCI one dose, SR; settings: 1.00E-5 Molar one dose
Summary of the method: as §1

[18] = system: EKVX (Non-Small Cell Lung Cancer); assay: NCI one dose, EKVX; settings: 1.00E-5 Molar one dose
Summary of the method: as §1

[19] = system: MDA-MB-231/ATCC (Breast Cancer); assay: NCI one dose, MDA-MB-231/ATCC; settings: 1.00E-5 Molar one dose
Summary of the method: as §1

[20] = system: RXF 393 (Renal Cancer); assay: NCI one dose, RXF 393; settings: RXF 393, 1.00E-5 Molar one dose
Summary of the method: as §1

[21] = system: OVCAR-4 (Ovarian Cancer); assay: NCI one dose, OVCAR-4; settings: OVCAR-4, 1.00E-5 Molar one dose
Summary of the method: as §1

[22] = system: NCI-H460 (Non-Small Cell Lung Cancer); assay: NCI one dose, NCI-H460; settings: NCI-H460, 1.00E-5 Molar one dose
Summary of the method: as §2

[23] = system: T-47D (Breast Cancer); assay: NCI one dose, T-47D; settings: 1.00E-5 Molar one dose
Summary of the method: as §2

[24] = system: HOP-92 (Non-Small Cell Lung Cancer); assay: NCI one dose, HOP-92; settings: HOP-92, 1.00E-5 Molar one dose
Summary of the method: as §1

[25] = system: SNB-19 (CNS Cancer); assay: NCI one dose, SNB-19; settings: SNB-19, 1.00E-5 Molar one dose
Summary of the method: as §1

[26] = system: OVCAR-5 (Ovarian Cancer); assay: NCI one dose, OVCAR-5; settings: OVCAR-5, 1.00E-5 Molar one dose
Summary of the method: as §1

[27] = system: NCI/ADR-RES (Ovarian Cancer); assay: NCI one dose, NCI/ADR-RES; settings: 1.00E-5 Molar one dose
Summary of the method: as §1

[28] = system: BT-549 (Breast Cancer); assay: NCI one dose, BT-549; settings: BT-549, 1.00E-5 Molar one dose
Summary of the method: as §1

[29] = system: 786-0 (Renal Cancer); assay: NCI one dose, 786-0; settings: 786-0, 1.00E-5 Molar one dose
Summary of the method: as §1

[30] = system: M14 (Melanoma); assay: NCI one dose, M14; settings: M14, 1.00E-5 Molar one dose
Summary of the method: as §1

[31] = system: NCI-H322M (Non-Small Cell Lung Cancer); assay: NCI one dose, NCI-H322M; settings: 1.00E-5 Molar one dose
Summary of the method: as §1

[32] = system: SF-539 (CNS Cancer); assay: NCI one dose, SF-539; settings: SF-539, 1.00E-5 Molar one dose
Summary of the method: as §1

[33] = system: HT29 (Colon Cancer); assay: NCI one dose, HT29; settings: HT29, 1.00E-5 Molar one dose
Summary of the method: as §1

COc1ccc(CNC(=O)[C@@H]2CS[C@@]3(C)c4ccccc4C(=O)N23)cc1 [4bF]
Growth Percent [1]: 103.30% | Growth Percent [2]: 93.94% | inhibition at 10 µM [3]: 28% | Growth Percent [3]: 72.32% | Growth Percent [4]: 102.28% | Growth Percent [5]: 108.61% | Growth Percent [6]: 96.39% | Growth Percent [7]: 77.39% | Growth Percent [8]: 96.53% | Growth Percent [9]: 99.99% | Growth Percent [10]: 85.69% | Growth Percent [11]: 89.30% | Growth Percent [12]: 106.66% | Growth Percent [13]: 93.24% | Growth Percent [14]: 108.39% | Growth Percent [15]: 94.06% | Growth Percent [16]: 106.02% | Growth Percent [17]: 84.33% | Growth Percent [18]: 106.83% | Growth Percent [19]: 93.86% | Growth Percent [20]: 95.28% | Growth Percent [21]: 98.29% | Growth Percent [22]: 110.45% | Growth Percent [23]: 97.83% | Growth Percent [24]: 80.27% | Growth Percent [25]: 99.83% | Growth Percent [26]: 107.98% | Growth Percent [27]: 97.36% | Growth Percent [28]: 106.11% | Growth Percent [29]: 98.12% | Growth Percent [30]: 102.83% | Growth Percent [31]: 107.95% | Growth Percent [32]: 105.73% | Growth Percent [33]: 84.10%

COc1ccccc1CNC(=O)[C@@H]1CS[C@@]2(C)c3ccccc3C(=O)N12 [4bG]
Growth Percent [1]: 98.16% | Growth Percent [2]: 98.16% | inhibition at 10 µM [3]: 30% | Growth Percent [3]: 70.03% | Growth Percent [4]: 98.70% | Growth Percent [5]: 110.44% | Growth Percent [6]: 95.65% | Growth Percent [7]: 85.09% | Growth Percent [8]: 103.74% | Growth Percent [9]: 91.89% | Growth Percent [10]: 90.92% | Growth Percent [11]: 94.50% | Growth Percent [12]: 104.41% | Growth Percent [13]: 95.39% | Growth Percent [14]: 105.75% | Growth Percent [15]: 95.21% | Growth Percent [16]: 99.44% | Growth Percent [17]: 82.72% | Growth Percent [18]: 102.57% | Growth Percent [19]: 98.66% | Growth Percent [20]: 105.28% | Growth Percent [21]: 95.75% | Growth Percent [22]: 107.31% | Growth Percent [23]: 98.35% | Growth Percent [24]: 98.11% | Growth Percent [25]: 102.87% | Growth Percent [26]: 107.74% | Growth Percent [27]: 102.18% | Growth Percent [28]: 109.63% | Growth Percent [29]: 104.93% | Growth Percent [30]: 100.11% | Growth Percent [31]: 100.27% | Growth Percent [32]: 109.96% | Growth Percent [33]: 79.32%

COc1ccccc1CNC(=O)[C@@H]1CS[C@H]2c3ccccc3C(=O)N12 [4aG]
Growth Percent [1]: 103.84% | Growth Percent [2]: 101.17% | inhibition at 10 µM [3]: 30% | Growth Percent [3]: 69.93% | Growth Percent [4]: 99.95% | Growth Percent [5]: 109.74% | Growth Percent [6]: 96.02% | Growth Percent [7]: 81.36% | Growth Percent [8]: 105.74% | Growth Percent [9]: 90.98% | Growth Percent [10]: 94.09% | Growth Percent [11]: 94.39% | Growth Percent [12]: 105.78% | Growth Percent [13]: 103.22% | Growth Percent [14]: 111.29% | Growth Percent [15]: 96.60% | Growth Percent [16]: 107.78% | Growth Percent [17]: 83.51% | Growth Percent [18]: 106.79% | Growth Percent [19]: 109.17% | Growth Percent [20]: 114.62% | Growth Percent [21]: 106.91% | Growth Percent [22]: 110.17% | Growth Percent [23]: 98.98% | Growth Percent [24]: 102.49% | Growth Percent [25]: 107.13% | Growth Percent [26]: 112.94% | Growth Percent [27]: 105.58% | Growth Percent [28]: 110.45% | Growth Percent [29]: 107.93% | Growth Percent [30]: 104.36% | Growth Percent [31]: 100.55% | Growth Percent [32]: 103.40% | Growth Percent [33]: 77.01%
